The subject of one data set is carrageenin edema. The data set can be described thus: carrageenin edema test in rats (antiinflammatory activity). The settings on record: Rattus norvegicus, po, read-out: % Decrease of the edema; for inhibition in vivo at 50 mg/kg: dose 50 mg/kg p.o. in rats; for inhibition in vivo at 100 mg/kg: dose 100 mg/kg p.o. in rats; for inhibition in vivo at 200 mg/kg: dose 200 mg/kg p.o. in rats. Format: in vivo. The text has this: The anti-inflamatory activity of the indole derivatives is evidenced by means of the carrageenin edema test in rats. In representative experiments compounds of formula I provoked a substantial decrease of the induced edema at dosage levels from about one fifth to about one tenth of their respective LD50 values. The following table reports the results of the experiments:
The following table reports the percent inhibitory effect of some representative compounds of the formula II in the carrageenin edema test.
In general terms: In the carrageenan paw model, swelling and tenderness develop within hours.

Data set [1] in a line: LD50 p.o. in rats (acute toxicity). Particulars: rat, in vivo, po.
In data set [2] the test system is pain threshold of inflammed foot of the rat. The data set can be described thus: analgesic effect on pain threshold of inflamed foot of the rat (Randall and Selitto). Format: in vivo. Particulars: vs acetylsalicylic acid.
[3] abbreviates: compounds of the examples (formula I).

The results in this text go back to US3984563A, “Antiinflammatory 2-imino-indolines and their pharmaceutical compositions” (Gruppo Lepetit S.p.A., priority 1973, dated 1976).

Counter-ions that a name gives are not always drawn. Like-named read-outs stand apart in the source and are kept apart here. Bounds are passed on as bounds.

By LD50 is commonly meant the dose expected to kill half of the subjects tested. Regarding `CN(NC(=O)C1CC1)c1ccccc1` [1-Phenyl-1-methyl-2-cyclopropanoylhydrazine], the inhibition in vivo at 50 mg/kg with carrageenin edema (hydrazines of formula II) came to 35%. The 50% lethal dose (LD50) in data set [1] (hydrazines of formula II) turned out to be 500 mg/kg.

In the case of `CCC(C)C(=O)NN(C)c1ccccc1` (stereo not drawn) [1-Phenyl-1-methyl-2-(2-methylbutyryl)-hydrazine], the inhibition in vivo at 100 mg/kg in the data set with carrageenin edema (hydrazines of formula II) is 40%. Further, the 50% lethal dose (LD50) in data set [1] (hydrazines of formula II) is above 1000 mg/kg.

For `CN1C(=NC(=O)c2ccccc2)C(C)(C)c2ccccc21` [Example 28, 2-Benzoylimino-1,3,3-trimethylindoline], in the data set on carrageenin edema (setting [3]), the inhibition in vivo at 100 mg/kg is 35% and the inhibition in vivo at 200 mg/kg was 45%. In data set [1] (setting [3]), the LD50 is above 1000 mg/kg.

As for `COc1ccc(N(C)NC(=O)C(C)C)cc1` [1-(p-Methoxyphenyl)-1-methyl-2-isobutyrylhydrazine], the inhibition in vivo at 50 mg/kg with carrageenin edema (hydrazines of formula II) came out at 30%. Also, the LD50 in data set [1] (hydrazines of formula II) is 500 mg/kg.

In the case of `CN(NC(=O)C1CCCCC1)c1ccccc1` [1-Phenyl-1-methyl-2-cyclohexanoyl hydrazine], in the data set with carrageenin edema (hydrazines of formula II), the inhibition in vivo at 50 mg/kg is 37%. This compound also came in with a 50% lethal dose (LD50) in data set [1] (hydrazines of formula II) of 500 mg/kg.

On to `Cn1c(NC(=O)Nc2ccccc2)c(-c2ccc(Cl)cc2)c2ccccc21` [Example 34, 3-(p-Chlorophenyl)-1-methyl-2-phenylureidoindole], for which the inhibition in vivo at 200 mg/kg in the data set on carrageenin edema (setting [3]) amounted to 33%. The LD50 in data set [1] (setting [3]) was above 1000 mg/kg.

Regarding `CCC(=O)NN(C)c1ccccc1` [1-Phenyl-1-methyl-2-propionylhydrazine], in the data set on carrageenin edema (hydrazines of formula II), the inhibition in vivo at 50 mg/kg stood at 30%. The same compound displayed an LD50 in data set [1] (hydrazines of formula II) of 500 mg/kg.

Consider `CC(=O)NN(C)c1ccccc1` [1-Phenyl-1-methyl-2-acetylhydrazine], for which the inhibition in vivo at 50 mg/kg with carrageenin edema (hydrazines of formula II) stood at 57%. The same compound returned an LD50 in data set [1] (hydrazines of formula II) of 500 mg/kg.

Turning to `CN(NC(=O)C1CCCC1)c1ccccc1` [1-Phenyl-1-methyl-2-cyclopentanoylhydrazine], the inhibition in vivo at 50 mg/kg in the data set with carrageenin edema (hydrazines of formula II) was determined as 37%. This compound also yielded a median lethal dose (LD50) in data set [1] (hydrazines of formula II) of 500 mg/kg.

For the compound `CC(C)C(=O)NN(C)c1ccccc1` [1-Phenyl-1-methyl-2-isobutyrylhydrazine], the inhibition in vivo at 50 mg/kg in the data set with carrageenin edema (hydrazines of formula II) was found to be 36%. Moreover, the median lethal dose (LD50) in data set [1] (hydrazines of formula II) is 500 mg/kg.

On to `CN(NC(=O)CCCN1C(=O)c2ccccc2C1=O)c1ccccc1` [1-Phenyl-1-methyl-1-( -phthalimido-butyryl)-hydrazine], for which the inhibition in vivo at 200 mg/kg in the data set on carrageenin edema (hydrazines of formula II) stood at 28%. The compound further came in with an LD50 in data set [1] (hydrazines of formula II) above 1000 mg/kg.

`CN1C(=N)C2(CCCCC2)c2ccccc21` [Example 13, 2'-imino-1'-methyl-spyro(cyclohexane-1,3'-indoline)hydrochloride]: the inhibition in vivo at 8 mg/kg in the data set with carrageenin edema (compounds of the examples (formula I), dose 8 mg/kg p.o. in rats) is 45%. Further, the inhibition in vivo at 20 mg/kg with carrageenin edema (compounds of the examples (formula I), dose 20 mg/kg p.o. in rats) was 60%. Further, the “analgesic activity relative to acetylsalicylic acid (times as active)” value in data set [2] is listed as “about 25 times”. The 50% lethal dose (LD50) in data set [1] (setting [3]) amounted to 100 mg/kg.

For the compound `COc1cccc(-c2c(N)n(C)c3ccccc23)c1` [Example 9, 2-amino-3-(m-anisyl)-1-methylindole hydrochloride], in the data set on carrageenin edema (setting [3]), the inhibition in vivo at 100 mg/kg came to 30% and the inhibition in vivo at 200 mg/kg is 41%. Further, the LD50 in data set [1] (setting [3]) is above 1000 mg/kg.
